Values belong to the molecule of their own block, whether it stands above or below them.
Target: T1, Receptor-interacting serine/threonine-protein kinase 1 (Homo sapiens, UniProt Q13546)
T1 sequence (Q13546 whole entry): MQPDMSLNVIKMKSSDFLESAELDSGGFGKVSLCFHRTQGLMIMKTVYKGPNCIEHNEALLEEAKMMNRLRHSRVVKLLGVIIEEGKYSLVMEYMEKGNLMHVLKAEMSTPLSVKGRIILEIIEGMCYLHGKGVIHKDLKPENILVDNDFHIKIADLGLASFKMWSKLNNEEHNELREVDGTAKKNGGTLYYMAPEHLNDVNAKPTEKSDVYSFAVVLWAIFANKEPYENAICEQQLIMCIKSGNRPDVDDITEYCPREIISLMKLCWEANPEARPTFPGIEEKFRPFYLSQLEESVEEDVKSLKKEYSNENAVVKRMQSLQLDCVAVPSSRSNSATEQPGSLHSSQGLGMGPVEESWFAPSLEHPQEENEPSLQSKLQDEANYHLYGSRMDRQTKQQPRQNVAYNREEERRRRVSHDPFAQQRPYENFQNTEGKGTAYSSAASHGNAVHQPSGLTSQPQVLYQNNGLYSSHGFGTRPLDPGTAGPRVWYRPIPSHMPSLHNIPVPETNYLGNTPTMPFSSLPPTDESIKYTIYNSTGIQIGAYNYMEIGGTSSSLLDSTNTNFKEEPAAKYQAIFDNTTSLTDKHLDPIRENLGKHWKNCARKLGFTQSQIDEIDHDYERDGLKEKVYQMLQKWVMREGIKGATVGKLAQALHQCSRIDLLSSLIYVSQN
Test: Inhibition of recombinant N-terminal GST-tagged human RIPK1 (1 to 327 residues) expressed in baculovirus infected Sf9 insect cells preincubated for 40 mins followed by substrate addition and measured after 60 mins by ADP-glo luminescence assay

SMILES: O=C(N1CC(Sc2ccc(Br)cc2)C1)N1N=CC[C@H]1c1cc(F)cc(F)c1
EC50: 5.9 nM

SMILES: O=C(c1ccccc1)C1CN(C(=O)N2N=CC[C@H]2c2cc(F)cc(F)c2)C1
EC50: 5.6 nM

The next molecules have a lower EC50 than those just listed; values first:

EC50: 3.8 nM
SMILES: O=C(N1CC(Oc2ccccc2)C1)N1N=CC[C@H]1c1cc(F)cc(F)c1

EC50: 3.1 nM
SMILES: O=C(N1CC(Oc2ccccc2F)C1)N1N=CC[C@H]1c1cc(F)cc(F)c1

EC50: < 5.1 nM
SMILES: C[C@H]1[C@@H](Oc2ccc(F)cc2)CN1C(=O)N1N=CC[C@H]1c1ccc(Cl)cc1
